Test [1] is filed under the species Mus musculus. Briefly: Effect on percent increase in seizure threshold was evaluated by maximal electroshock threshold (MEST) test in mouse. The format is functional.
For test [2], the system named is Rattus norvegicus. Briefly: Tested for blood pressure fall on i.v. administration at a dose of 10 mg/kg infused over 30 minutes in pentobarbitone-anaesthetized hooded lister rats. Format: functional. To be noted: route intravenous.

SMILES strings stand for the structures.

Compound `CC1(C)Oc2ccc(C#N)cc2[C@H](NC(=O)c2ccc(F)cc2)[C@H]1O` gave an Increase in test [1] of 41%.

Consider `CC1(C)Oc2ccc(C#N)cc2[C@@H](NC(=O)c2ccc(F)cc2)[C@@H]1O`, for which, in test [1], the Increase came to 17%.

With `CC1(C)CC(NC(=O)c2ccc(F)cc2)c2cc(C#N)ccc2O1` (configuration not stated), the Increase in test [1] is listed as 5%.

`CC1(C)Oc2ccc(C#N)cc2[C@@H](NC(=O)c2ccc(F)cc2)[C@H]1O` displayed a BP in test [2] of 36%. Besides, the Increase in test [1] amounted to 0%.

In turn, `CC1(C)Oc2ccc(C#N)cc2[C@H](NC(=O)c2ccc(F)cc2)[C@@H]1O` returned a BP in test [2] of 5%. In addition, in test [1], the Increase was 28%.

Source of the values: ChEMBL document CHEMBL1128065, “Stereochemical preferences and requirement for the 3-hydroxyl group in novel anticonvulsant 4-fluorobenzoylamino benzopyrans” (1995).
